The record followed here is ChEMBL document CHEMBL1152149 (Bioorg Med Chem Lett, 2008).

Data set [1] deals with Glutamate NMDA receptor. Briefly: Inhibition of NMDA receptor in rat cerebellar granule neurons assessed as glutamate-induced intracellular calcium increase. The data set is classed as cell-based.
A further data set deals with H2N2 subtype. The class given is functional, organism-based, Influenza A virus (A/Japan/305/1957(H2N2)). Conditions: Influenza A virus, MDCK.
In data set [2] the target is Glutamate NMDA receptor. Briefly: Inhibition of NMDA receptor in rat cerebellar granule neurons assessed as NMDA-induced intracellular calcium increase. The class given is cell-based. On the technique in general: Calcium assays in cells follow changes in intracellular calcium, usually with a dye or a luminescent sensor.
Data set [3] in a line: Binding affinity to influenza A virus A/chicken/Germany/27 H7N7 weybridge strain M2 ion channel expressed in Escherichia coli.
The subject of the next data set is Influenza B virus. The data set is classed as functional, organism-based. As to conditions: B/Hong Kong/05/1972, MDCK.
A short description of data set [4]: Cytotoxicity against MDCK cells assessed as detectable alteration of normal cell morphology. The data set is classed as cell-based, Canis lupus familiaris. As to conditions: dog, read-out: Activity.

Structures can show the parent of a compound that is named as a salt. Active and inactive are the calls of the source. No cut-off for these calls is given here.

Broadly, the IC50 is the concentration at which inhibition is half-maximal. A word on the EC50: it is the concentration at which the effect is half-maximal. By Kd is commonly meant the free concentration of one partner at which half of the binding sites on the other are occupied at equilibrium, for simple one-to-one binding. On to `CC1(N)C2CC3CC(C2)CC1C3` (centres undefined), for which the IC50 at Glutamate NMDA receptor [1] is 306 µM; on Glutamate NMDA receptor [2], 64.4 µM. This molecule also came in with an EC50 in the data set on H2N2 subtype of 3.5 µM. The molecule further gave a Kd in data set [3] of 3.6 µM. Also, the outcome with Influenza B virus was inactive. Moreover, the MCC in data set [4] was greater than 1.24 mM.
As for `NC1C2CC3CC(C2)CC1C3` (centres undefined), the IC50 at Glutamate NMDA receptor [1] was greater than 350 µM; on Glutamate NMDA receptor [2], 219 µM. This molecule came in with an EC50 in the data set on H2N2 subtype of 2.8 µM. Besides, in data set [3], the Kd was determined as 2.36 µM. The outcome in the data set with Influenza B virus was inactive. Moreover, in data set [4], the MCC was greater than 1.33 mM.
With `CCCC1(N)C2CC3CC(C2)CC1C3` (centres undefined), the IC50 is 258 µM on Glutamate NMDA receptor [1] and 61.3 µM on Glutamate NMDA receptor [2]. This molecule also came in with an EC50 in the data set with H2N2 subtype of less than 1.7 µM. In data set [3], this molecule gave a Kd of 8.71 µM. In addition, the outcome in the data set on Influenza B virus was inactive. The MCC in data set [4] is greater than 1.09 mM.
In the data set with H2N2 subtype, `CCC1(N)C2CC3CC(C2)CC1C3` (centres undefined) registered an EC50 of less than 1.9 µM. For the same molecule, in data set [3], the Kd turned out to be 6.7 µM. The outcome in the data set on Influenza B virus was inactive. Further, in data set [4], the MCC is greater than 1.16 mM.
In the same order, the values of `NC12CC3CC(CC(C3)C1)C2` [AMANTADINE HYDROCHLORIDE] are 1.1 µM, 0.32 µM, “inactive” and greater than 1.33 mM.
For `CC1(O)C2CC3CC(C2)CC1C3` (centres undefined), the IC50 at Glutamate NMDA receptor [1] and on Glutamate NMDA receptor [2] was greater than 350 µM each time. This molecule also yielded an EC50 in the data set on H2N2 subtype of 3 µM. In addition, the result in the data set with Influenza B virus was inactive. The MCC in data set [4] was greater than 1.51 mM.
The molecule `CC1(F)C2CC3CC(C2)CC1C3` (centres undefined) registered a Kd in data set [3] greater than 26 µM.
Consider `C1CCC2(NC1)C1CC3CC(C1)CC2C3` (centres undefined), for which the values for the IC50 on Glutamate NMDA receptor [1] and on Glutamate NMDA receptor [2] were 239 µM and 19 µM, respectively. For the same molecule, the EC50 in the data set with H2N2 subtype was 1 µM; in the data set on Influenza B virus, 241 µM. Moreover, the Kd in data set [3] amounted to 0.39 µM. Also, in data set [4], the MCC is greater than 1.03 mM.
As for `C1CNC2(C1)C1CC3CC(C1)CC2C3` (centres undefined), the IC50 at Glutamate NMDA receptor [1] was 314 µM; at Glutamate NMDA receptor [2], 50.6 µM. The molecule further showed an EC50 with H2N2 subtype of 1.8 µM. In data set [3], this molecule yielded a Kd of 1.16 µM. The result in the data set with Influenza B virus was inactive. Also, the MCC in data set [4] was greater than 1.1 mM.
As to `CCCC1(O)C2CC3CC(C2)CC1C3` (centres undefined), the IC50 at Glutamate NMDA receptor [1] and on Glutamate NMDA receptor [2] was greater than 350 µM in each case. In the data set with H2N2 subtype, this molecule had an EC50 of less than 2.1 µM. The result in the data set with Influenza B virus was inactive. Further, the MCC in data set [4] is greater than 1.29 mM.
